In one assay the test system is Plasmodium falciparum. Description: Antiplasmodial activity against chloroquine-resistant Plasmodium falciparum FCB1 in human blood as [G-3H]hypoxanthine uptake. It counts as functional, organism-based.
For a further assay, the system named is KB. Description: Cytotoxicity against human KB cells after 72 hrs. It counts as functional, cell-based.

SMILES strings stand for the structures. pIC50: −log10 of the molar value.

For the molecule `C=C(C(=O)O[C@H]1[C@H]2[C@@H](C[C@@H](C)[C@@H]3C=CC(=O)[C@]31C)OC(=O)[C@@H]2C)[C@@H](C)O`, the figures for the pIC50 in the assay with Plasmodium falciparum and with KB were 6.39 and 7.30, respectively.
In the case of `C=C1C(=O)O[C@@H]2C[C@@H](C)[C@@H]3C=CC(=O)[C@@]3(C)[C@@H](OC(=O)C(=C)[C@@H](C)O)[C@H]12`, the results for the negative logarithm of the IC50 (pIC50) with Plasmodium falciparum and in the assay on KB were 6.00 and 6.48, respectively.
With `COc1cccc2c1C(=O)c1c(O)c3c(c(O)c1C2=O)C[C@@](O)(C(=O)CO)C[C@@H]3O[C@H]1C[C@H](N)[C@H](O)[C@H](C)O1` [DOXORUBICIN], the pIC50 (usually −log10 of the IC50, conventionally taken in molar units) in the assay on KB is 6.57.
Turning to `C=C1C(=O)O[C@@H]2C[C@@H](C)[C@@H]3C=CC(=O)[C@@]3(C)[C@@H](OC(=O)/C(=C\C)CO)[C@H]12`, the results for the pIC50 with Plasmodium falciparum and with KB were 6.72 and 6.03, respectively.

The record behind these values is ChEMBL document CHEMBL1158776, “Pseudoguanolide sesquiterpene lactones from Vernoniopsis caudata and their in vitro antiplasmodial activities” (J Nat Prod, 2005).
